In brackets after ≈: the same amount, converted by molar mass.
Assays:
[1] = molecular target: Ba/F3-FL-EGFR-A763-Y764 ins FQEA (Homo sapiens, UniProt P00533, INS763FQEA, cells depend on it); test: Cell proliferation inhibition (CellTiter-Glo), EGFR exon 20 insertion engineered cells; assay type: cell-based; conditions: 72 h, read-out: IC50, Ba/F3-FL-EGFR A763-Y764ins FQEA
Method: (§1) The selected engineering cells Ba/F3-FL-EGFR-V769-D770 ins ASV, Ba/F3-FL-EGFR-D770-N771 ins SVD, Ba/F3-FL-EGFR-H773-V774 ins NPH, Ba/F3-FL-EGFR-A763-Y764 ins FQEA, Ba/F3-HER2-A775-G776 ins YVMA were provided by Hefei PreceDo Biomedical Technology Co., LTD and were validated prior to use in this study.
(§2) A 20× stock of the compound to be tested was prepared for use, with 9 concentrations in 3-fold gradient dilution, diluted from 1 μM.
(§3) The logarithmic growth phase cell suspension was inoculated into 96-well white cell culture plates with 95 μL volume per well (2000 cells/well). 5 μL of 20× Compound to be tested was added to the plate containing 95 μL of cell suspension according to the plate spreading diagram, and then mixed well. The plate was incubated in a 5% CO2 incubator at 37° C. for 72 h. The proliferation inhibition activity of the compounds was determined by the CellTiter-Glo method, and the fluorescence value per well, RLU, was obtained from the SpectraMax Paradigm reading. Inhibition Rate data were processed using the following formula: Inhibition Rate (Inh %)=100−(RLU compound−RLU blank)/(RLU control−RLU blank)*100%. The cell viability corresponding to different concentrations of compounds was calculated in EXCEL, and then GraphPad Prism software was used to plot the cell viability curve and calculate the IC50 value.

[2] = molecular target: Ba/F3-FL-EGFR-D770-N771 ins SVD (Homo sapiens, UniProt P00533, DUP768-770, cells depend on it); test: as above; assay type: cell-based; conditions: 72 h, read-out: IC50, Ba/F3-FL-EGFR D770-N771ins SVD
Method: as §1, §2, §3

[3] = molecular target: Ba/F3-FL-EGFR-H773-V774 ins NPH (Homo sapiens, UniProt P00533, DUP771-773, cells depend on it); test: as above; assay type: cell-based; conditions: 72 h, read-out: IC50, Ba/F3-FL-EGFR H773-V774ins NPH
Sequence of Ba/F3-FL-EGFR-H773-V774 ins NPH (P00533 with tags, fused parts or gaps DUP771-773): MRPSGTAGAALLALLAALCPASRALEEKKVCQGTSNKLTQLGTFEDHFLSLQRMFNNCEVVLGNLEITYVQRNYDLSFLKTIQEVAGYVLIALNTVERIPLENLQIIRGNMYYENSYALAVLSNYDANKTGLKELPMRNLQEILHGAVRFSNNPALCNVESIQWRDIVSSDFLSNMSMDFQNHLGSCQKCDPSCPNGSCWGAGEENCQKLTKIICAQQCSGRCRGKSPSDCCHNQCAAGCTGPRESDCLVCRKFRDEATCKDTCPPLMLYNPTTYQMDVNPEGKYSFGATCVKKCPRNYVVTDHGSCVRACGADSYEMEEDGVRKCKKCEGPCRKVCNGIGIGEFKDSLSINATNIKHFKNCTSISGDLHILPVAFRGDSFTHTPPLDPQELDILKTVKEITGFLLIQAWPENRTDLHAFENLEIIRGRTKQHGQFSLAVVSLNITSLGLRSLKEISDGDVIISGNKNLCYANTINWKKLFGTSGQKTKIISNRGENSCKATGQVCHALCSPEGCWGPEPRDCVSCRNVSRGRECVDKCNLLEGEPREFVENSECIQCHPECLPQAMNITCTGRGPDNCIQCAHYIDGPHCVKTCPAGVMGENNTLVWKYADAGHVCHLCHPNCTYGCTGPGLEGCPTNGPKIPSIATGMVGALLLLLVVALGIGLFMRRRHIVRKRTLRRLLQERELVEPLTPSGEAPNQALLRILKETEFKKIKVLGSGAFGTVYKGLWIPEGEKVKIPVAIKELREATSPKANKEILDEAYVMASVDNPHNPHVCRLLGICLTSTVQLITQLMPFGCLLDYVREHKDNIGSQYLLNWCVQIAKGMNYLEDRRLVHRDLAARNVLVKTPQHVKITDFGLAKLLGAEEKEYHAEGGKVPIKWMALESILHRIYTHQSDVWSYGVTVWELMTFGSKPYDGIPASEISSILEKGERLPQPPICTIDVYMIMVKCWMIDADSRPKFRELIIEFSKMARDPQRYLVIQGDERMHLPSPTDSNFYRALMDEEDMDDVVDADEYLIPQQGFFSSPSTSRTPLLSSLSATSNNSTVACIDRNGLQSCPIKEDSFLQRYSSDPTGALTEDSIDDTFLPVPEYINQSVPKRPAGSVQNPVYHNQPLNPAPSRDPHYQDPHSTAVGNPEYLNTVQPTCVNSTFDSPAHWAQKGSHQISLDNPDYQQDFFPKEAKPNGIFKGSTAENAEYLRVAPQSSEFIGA
Method: as §1, §2, §3

[4] = molecular target: Ba/F3-FL-EGFR-V769-D770 ins ASV (Homo sapiens, UniProt P00533, DUP767-769, cells depend on it); test: as above; assay type: cell-based; conditions: 72 h, read-out: IC50, Ba/F3-FL-EGFR V769-D770ins ASV
Sequence of Ba/F3-FL-EGFR-V769-D770 ins ASV (P00533 with tags, fused parts or gaps DUP767-769): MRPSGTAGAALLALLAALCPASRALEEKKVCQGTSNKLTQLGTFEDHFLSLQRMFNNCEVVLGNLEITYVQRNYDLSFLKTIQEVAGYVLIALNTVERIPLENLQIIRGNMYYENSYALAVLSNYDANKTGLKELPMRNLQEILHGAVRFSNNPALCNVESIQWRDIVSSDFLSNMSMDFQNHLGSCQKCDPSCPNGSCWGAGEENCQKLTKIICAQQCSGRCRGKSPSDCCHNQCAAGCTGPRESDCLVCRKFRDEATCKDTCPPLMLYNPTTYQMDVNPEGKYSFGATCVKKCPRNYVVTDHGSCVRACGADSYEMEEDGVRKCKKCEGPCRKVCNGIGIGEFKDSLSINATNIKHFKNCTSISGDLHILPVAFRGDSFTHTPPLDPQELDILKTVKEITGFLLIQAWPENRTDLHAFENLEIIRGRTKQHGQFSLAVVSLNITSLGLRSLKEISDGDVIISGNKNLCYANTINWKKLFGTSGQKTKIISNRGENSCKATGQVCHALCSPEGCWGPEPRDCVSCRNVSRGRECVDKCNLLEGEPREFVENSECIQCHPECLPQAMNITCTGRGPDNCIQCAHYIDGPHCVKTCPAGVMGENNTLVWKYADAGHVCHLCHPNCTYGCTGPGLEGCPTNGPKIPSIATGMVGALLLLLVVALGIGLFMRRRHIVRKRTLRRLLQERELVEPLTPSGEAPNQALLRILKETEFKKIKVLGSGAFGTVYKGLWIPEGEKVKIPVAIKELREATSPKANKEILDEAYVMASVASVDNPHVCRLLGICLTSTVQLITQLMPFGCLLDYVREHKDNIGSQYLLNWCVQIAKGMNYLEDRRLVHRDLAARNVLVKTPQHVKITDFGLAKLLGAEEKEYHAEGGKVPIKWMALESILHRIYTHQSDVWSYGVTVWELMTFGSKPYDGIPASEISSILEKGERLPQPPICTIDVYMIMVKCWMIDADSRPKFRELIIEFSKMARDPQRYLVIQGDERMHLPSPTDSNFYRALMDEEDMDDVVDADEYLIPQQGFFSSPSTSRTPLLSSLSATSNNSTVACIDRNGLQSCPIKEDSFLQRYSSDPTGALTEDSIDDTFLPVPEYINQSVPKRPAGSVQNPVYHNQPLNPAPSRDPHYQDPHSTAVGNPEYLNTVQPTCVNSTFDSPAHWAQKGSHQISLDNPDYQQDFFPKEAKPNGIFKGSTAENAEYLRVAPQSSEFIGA
Method: as §1, §2, §3

[5] = molecular target: Ba/F3-HER2-A775-G776 ins YVMA (Homo sapiens, UniProt P04626, DUP772-775, cells depend on it); test: Cell proliferation inhibition (CellTiter-Glo), HER2 exon 20 insertion engineered cells; assay type: cell-based; conditions: for GI50: 72 h, CellTiter-Glo, read-out: IC50, Ba/F3-HER2-A775-G776ins YVMA
Sequence of Ba/F3-HER2-A775-G776 ins YVMA (P04626 with tags, fused parts or gaps DUP772-775): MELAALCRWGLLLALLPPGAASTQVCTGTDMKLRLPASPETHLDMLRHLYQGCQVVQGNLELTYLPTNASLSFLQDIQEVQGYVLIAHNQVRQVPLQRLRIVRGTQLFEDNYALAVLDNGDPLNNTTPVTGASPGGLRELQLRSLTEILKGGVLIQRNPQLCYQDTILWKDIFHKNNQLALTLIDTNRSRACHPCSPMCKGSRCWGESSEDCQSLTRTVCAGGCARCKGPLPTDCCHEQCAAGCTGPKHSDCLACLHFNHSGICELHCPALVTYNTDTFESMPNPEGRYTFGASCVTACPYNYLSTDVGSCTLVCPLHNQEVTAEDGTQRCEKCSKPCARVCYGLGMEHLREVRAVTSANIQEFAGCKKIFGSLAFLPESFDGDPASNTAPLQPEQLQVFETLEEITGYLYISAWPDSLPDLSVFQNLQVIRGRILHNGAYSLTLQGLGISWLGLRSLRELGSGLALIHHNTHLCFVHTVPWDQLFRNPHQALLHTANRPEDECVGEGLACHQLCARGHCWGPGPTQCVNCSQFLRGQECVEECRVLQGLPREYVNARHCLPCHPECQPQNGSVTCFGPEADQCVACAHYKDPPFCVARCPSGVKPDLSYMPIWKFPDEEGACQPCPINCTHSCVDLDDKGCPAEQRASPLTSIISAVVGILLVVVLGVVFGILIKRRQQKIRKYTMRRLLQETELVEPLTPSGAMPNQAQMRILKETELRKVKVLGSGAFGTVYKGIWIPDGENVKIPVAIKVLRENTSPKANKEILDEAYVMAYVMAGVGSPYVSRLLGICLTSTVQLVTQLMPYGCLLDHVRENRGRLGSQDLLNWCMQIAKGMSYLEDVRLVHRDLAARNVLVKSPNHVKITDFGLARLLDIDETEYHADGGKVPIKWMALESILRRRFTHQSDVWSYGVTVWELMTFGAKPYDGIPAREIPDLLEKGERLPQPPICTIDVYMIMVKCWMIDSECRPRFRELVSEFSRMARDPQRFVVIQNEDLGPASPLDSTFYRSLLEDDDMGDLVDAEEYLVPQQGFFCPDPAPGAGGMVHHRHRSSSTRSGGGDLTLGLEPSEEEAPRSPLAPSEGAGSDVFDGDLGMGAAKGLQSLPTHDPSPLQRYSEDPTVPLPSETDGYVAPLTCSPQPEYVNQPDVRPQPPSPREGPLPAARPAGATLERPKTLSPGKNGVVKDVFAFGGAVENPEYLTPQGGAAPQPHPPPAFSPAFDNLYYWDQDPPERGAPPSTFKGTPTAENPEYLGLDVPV
Method: as §1, §2, §3

[6] = tested on: NCI-H1975; test: Cell proliferation inhibition (CellTiter-Glo) on cell line NCI-H1975; assay type: cell-based; conditions: Homo sapiens
Method: (§4) The cell lines NCI-H1975 and PC9 selected for the experiments were provided by Sino-American Guanke Biotechnology (Beijing) Co. and were validated prior to use in this study.
(§5) A 10× stock of the compound to be tested was prepared for use, with 9 concentrations in 4-fold gradient dilution, diluted from 10 μM.
(§6) The logarithmic growth phase cell suspension was inoculated into a 96-well culture plate with 90 μL volume per well (2000 cells/well). 10 μL of 10× Compound to be tested was added to the plate according to the plate spreading diagram, and then mixed well. The plate was incubated in a 5% CO2 incubator at 37° C. The proliferation inhibitory activity of the compound was determined by the CellTiter-Glo method. Cell proliferation inhibition rate (Inhibition Rate) data were plotted using GraphPad Prism 8.0 software for cell viability curves and IC50 values were calculated.

[7] = tested on: PC9; test: Cell proliferation inhibition (CellTiter-Glo) on cell line PC9; assay type: cell-based; conditions: Homo sapiens, PC-9
Method: as §4, §5, §6

[8] = tested on: Lung cancer LU0387PDX model; test: Pharmacodynamic study on lung cancer LU0387PDX model; assay type: in vivo, mice; conditions: LU0387 model; for TGI (%): P.O, QD * 13 days
From the text: Lung cancer LU0387PDX model is a commonly used xenograft tumor model from Crown Bioscience, the experimental situation of this model is described as follows: after euthanasia of tumor-bearing mice, the tumor blocks were dissected out in aseptic condition, the blocks were cleaned to remove blood stains and connective tissues and necrotic parts, and the tumors were cut into small pieces of 2*2*2 mm^3, and inoculated with an adapter needle in sterilized experimental mice subcutaneously on the right dorsal side. Tumor growth was regularly observed, and when the tumors grew to an average volume of 100~200 mm^3, mice were randomly grouped according to tumor size and body weight for drug administration. Before the start of drug administration, all animals were weighed and the tumor volume was measured with vernier calipers. Mice were randomly grouped according to tumor volume to ensure that tumor volumes were similar between groups. Three mice in each group were administered orally once daily, and the inoculation site was observed after administration. Tumor volume and mouse body weight were measured twice a week. The experimental design and results were shown in Table 9, wherein P.O referred to administered orally; QD: once a day; TGI (Tumor volume inhibition rate)=(1-Tumor weight of the treatment group/Tumor weight of the control group)*100%.

[9] = tested on: Ba/F3 EGFR D770_N771 ins SVD; test: In vivo pharmacodynamic study, Ba/F3-EGFR-D770_N771 ins SVD subcutaneous xenograft model; set-up: species or system nude mice; conditions: 30 mg/kg, P.O, QD * 14 days
Method: The experimental design and results were shown in Table 9, wherein P.O referred to administered orally; QD: once a day; TGI (Tumor volume inhibition rate)=(1-Tumor weight of the treatment group/Tumor weight of the control group)*100%. The cell line Ba/F3 EGFR D770_N771 ins SVD was cultured in 37° C., 5% CO2 with RPMI1640+10% fetal bovine serum+1% double antibody, and passaged 2-3 times a week. When the cell saturation was 80-90% and the number of cells met the requirement, the cells were collected. 0.2 mL (1*10^6) cells were subcutaneously inoculated into the right back of 6-8 weeks old female nude mice weighing 18-22 g. When the average tumor volume reached approximately 150-200 mm^3, grouping and drug administration started. Before the start of drug administration, all animals were weighed and the tumor volume was measured with vernier calipers. Mice were randomly grouped according to tumor volume to ensure that tumor volumes were similar between groups. Three mice in each group were administered orally once daily, and the inoculation site was observed after administration. Tumor volume and mouse body weight were measured twice a week.

[10] = Solubility test by visual inspection in 18 solvents; assay type: physicochemical; conditions: room temperature
From the text: The solubility of the free base crystalline form I of the compound of Example 1 was crudely determined by visual inspection in 18 solvents at room temperature. The free base crystalline form I was only highly soluble in dichloroethane and dichloromethane and poorly soluble in most of the solvents tested.

[11] = Dynamic water vapor adsorption (DVS) test; assay type: physicochemical
[12] = Stability experiment (left open, XRPD and liquid chromatography); assay type: physicochemical; conditions: left open at 80° C. 3 days, 60° C. 7 days, 25° C./60% RH 7 days, 40° C./75% RH 7 days, 25° C./90±5% RH 7 days
Method: In the stability experiment, when the free base crystalline form I was left open at 80° C. for 3 days, 60° C. for 7 days, 25° C./60% RH for 7 days, 40° C./75% RH for 7 days, and 25° C./90±5% RH for 7 days, the samples were taken for XRPD detection, respectively.

[13] = Grinding experiment; assay type: physicochemical
[14] = Tablet pressing experiment; assay type: physicochemical; conditions: pressure 30 MPa
[15] = Competitive pulping of anhydrous crystalline forms I and V; assay type: physicochemical; conditions: saturated acetone and acetonitrile solutions, 25° C. or 50° C.

Sequence of Ba/F3-FL-EGFR-A763-Y764 ins FQEA (P00533 with tags, fused parts or gaps INS763FQEA): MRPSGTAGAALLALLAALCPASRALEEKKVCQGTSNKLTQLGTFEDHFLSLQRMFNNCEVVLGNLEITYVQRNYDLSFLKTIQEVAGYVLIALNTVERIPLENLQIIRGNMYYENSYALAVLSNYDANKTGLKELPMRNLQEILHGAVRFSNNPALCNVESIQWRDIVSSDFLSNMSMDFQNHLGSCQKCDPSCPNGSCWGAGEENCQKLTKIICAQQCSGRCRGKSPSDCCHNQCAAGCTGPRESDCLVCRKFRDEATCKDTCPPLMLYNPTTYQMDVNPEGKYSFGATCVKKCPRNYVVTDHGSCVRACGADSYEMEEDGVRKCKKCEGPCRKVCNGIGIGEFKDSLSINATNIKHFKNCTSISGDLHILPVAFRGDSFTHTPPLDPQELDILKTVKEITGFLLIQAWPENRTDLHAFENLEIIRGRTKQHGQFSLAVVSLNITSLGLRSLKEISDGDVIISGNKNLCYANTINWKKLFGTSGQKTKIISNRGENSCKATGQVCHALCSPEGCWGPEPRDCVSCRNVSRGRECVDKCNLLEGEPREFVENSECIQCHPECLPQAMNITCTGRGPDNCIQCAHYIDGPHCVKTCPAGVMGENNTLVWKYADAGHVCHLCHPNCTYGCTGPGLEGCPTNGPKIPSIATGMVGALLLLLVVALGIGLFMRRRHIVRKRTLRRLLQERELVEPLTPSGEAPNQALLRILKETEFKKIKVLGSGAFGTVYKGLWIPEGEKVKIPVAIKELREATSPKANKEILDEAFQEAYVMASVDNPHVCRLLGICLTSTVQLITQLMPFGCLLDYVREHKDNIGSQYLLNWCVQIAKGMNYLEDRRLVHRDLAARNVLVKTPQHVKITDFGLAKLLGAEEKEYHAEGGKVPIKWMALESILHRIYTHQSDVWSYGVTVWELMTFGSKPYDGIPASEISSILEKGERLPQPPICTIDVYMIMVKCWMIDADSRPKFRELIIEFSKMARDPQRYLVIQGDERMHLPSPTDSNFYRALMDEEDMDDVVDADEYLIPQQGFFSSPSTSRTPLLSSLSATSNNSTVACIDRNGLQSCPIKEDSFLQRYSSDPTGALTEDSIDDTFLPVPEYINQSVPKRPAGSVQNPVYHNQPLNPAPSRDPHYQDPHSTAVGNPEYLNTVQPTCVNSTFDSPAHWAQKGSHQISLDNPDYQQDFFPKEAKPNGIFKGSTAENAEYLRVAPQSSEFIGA

C=CC(=O)Nc1cc(Nc2ncc(C(=O)OC(C)C)c(-c3cn(C)c4ccccc34)n2)c(OC)cc1N(C)[C@@H]1[C@@H]2CN(C)C[C@@H]21 [Example 1]
GI50 [1]: ≤ 0.03 µM | GI50 [2]: ≤ 0.03 µM | GI50 [3]: ≤ 0.03 µM | GI50 [4]: ≤ 0.03 µM | GI50 [5]: ≤ 0.03 µM | IC50 [6]: ≤ 0.03 µM | IC50 [7]: ≤ 0.03 µM | TGI (%) ([8]; 30 mg/kg): 79.01% | TGI (%) ([8]; 50 mg/kg): 97.44% | efficacy compared with controls (FIG. 1, tumor volume) ([8]; same dose): superior to that of TAK-788 and DZD9008 | TGI (%) [9]: 61.08%

[2H]C([2H])([2H])n1cc(-c2nc(Nc3cc(NC(=O)C=C)c(N(C)[C@@H]4[C@@H]5CN(C)C[C@@H]54)cc3OC)ncc2C(=O)OC(C)C)c2ccccc21 [Example 2]
GI50 [1]: ≤ 0.03 µM | GI50 [2]: ≤ 0.03 µM | GI50 [3]: ≤ 0.03 µM | GI50 [4]: ≤ 0.03 µM

[2H]C([2H])([2H])N(c1cc(OC)c(Nc2ncc(C(=O)OC(C)C)c(-c3cn(C)c4ccccc34)n2)cc1NC(=O)C=C)[C@@H]1[C@@H]2CN(C)C[C@@H]21 [Example 3]
GI50 [1]: ≤ 0.03 µM | GI50 [2]: ≤ 0.03 µM | GI50 [3]: ≤ 0.03 µM | GI50 [4]: ≤ 0.03 µM

C=CC(=O)Nc1cc(Nc2ncc(-c3nnc(C)o3)c(-c3cn(C)c4ccccc34)n2)c(OC)cc1N(C)[C@@H]1[C@@H]2CN(C)C[C@@H]21 [Example 5]
GI50 [1]: ≤ 0.03 µM | GI50 [2]: ≤ 0.03 µM | GI50 [3]: ≤ 0.03 µM | GI50 [4]: ≤ 0.03 µM | GI50 [5]: ≤ 0.03 µM | cellular activity against HER2 exon 20 insertion mutations compared with controls ([5]; Table 7): comparable to that of TAK-788 and superior to that of DZD9008 | IC50 [6]: ≤ 0.03 µM | IC50 [7]: ≤ 0.03 µM | TGI (%) ([8]; 30 mg/kg): 66.90% | TGI (%) [9]: 59.51%

[2H]C([2H])([2H])N(c1cc(OC)c(Nc2ncc(-c3nnc(C)o3)c(-c3cn(C)c4ccccc34)n2)cc1NC(=O)C=C)[C@@H]1[C@@H]2CN(C)C[C@@H]21 [Example 7]
GI50 [1]: ≤ 0.03 µM | GI50 [2]: ≤ 0.03 µM | GI50 [3]: ≤ 0.03 µM | GI50 [4]: ≤ 0.03 µM

[2H]C([2H])([2H])N1C[C@@H]2[C@H](C1)[C@@H]2N(C)c1cc(OC)c(Nc2ncc(-c3nnc(C)o3)c(-c3cn(C)c4ccccc34)n2)cc1NC(=O)C=C [Example 8]
GI50 [1]: ≤ 0.03 µM | GI50 [2]: ≤ 0.03 µM | GI50 [3]: ≤ 0.03 µM | GI50 [4]: ≤ 0.03 µM

C=CC(=O)Nc1cc(Nc2ncc(-c3nnc(C)o3)c(-c3cn(C)c4ccccc34)n2)c(OC)cc1N(C)[C@H]1[C@@H]2CN(C)C[C@@H]21 [Example 18, reference compound]
TGI (%) [9]: 32.22%

C=CC(=O)Nc1cc(Nc2ncc(C(=O)OC(C)C)c(-c3cn(C)c4ccccc34)n2)c(OC)cc1N(C)[C@H]1[C@@H]2CN(C)C[C@@H]21 [Example 40, reference compound]
TGI (%) [9]: 37.84%

C=CC(=O)Nc1cc(Nc2ncc(C(=O)OC(C)C)c(-c3cn(C)c4ccccc34)n2)c(OC)cc1N(C)[C@@H]1[C@@H]2CN(C)C[C@@H]21 [free base crystalline form I]
solubility ([10]; organic solvent or mixture, thermodynamic from solid, 1,4-dioxane): < 0.27 mg/mL | solubility ([10]; organic solvent or mixture, thermodynamic from solid, Acetone): 2.22 to 4.44 mg/mL (≈ 3.64 to 7.28 mM) | solubility ([10]; organic solvent or mixture, thermodynamic from solid, Acetonitrile): 0.93 to 1.01 mg/mL (≈ 1.53 to 1.66 mM) | solubility ([10]; organic solvent or mixture, thermodynamic from solid, Butanone): 2.78 to 4.44 mg/mL (≈ 4.56 to 7.28 mM) | solubility ([10]; organic solvent or mixture, thermodynamic from solid, Cyclohexane): < 0.33 mg/mL | solubility ([10]; organic solvent or mixture, thermodynamic from solid, Dichloroethane): 61.8 to 124 mg/mL (≈ 101 to 203 mM) | solubility ([10]; organic solvent or mixture, thermodynamic from solid, Dichloromethane): > 107 mg/mL | solubility ([10]; organic solvent or mixture, thermodynamic from solid, Dimethylsulfoxide): 2.6 to 2.93 mg/mL (≈ 4.26 to 4.81 mM) | solubility ([10]; organic solvent or mixture, thermodynamic from solid, Ethanol): < 0.3 mg/mL | solubility ([10]; organic solvent or mixture, thermodynamic from solid, Ethyl acetate): < 0.29 mg/mL | solubility ([10]; organic solvent or mixture, thermodynamic from solid, Isopropanol): < 0.35 mg/mL | solubility ([10]; organic solvent or mixture, thermodynamic from solid, Isopropyl acetate): < 0.3 mg/mL | solubility ([10]; organic solvent or mixture, thermodynamic from solid, Methanol): < 0.4 mg/mL | solubility ([10]; organic solvent or mixture, thermodynamic from solid, N-Methyl pyrrolidone): 18.2 to 27.4 mg/mL (≈ 29.9 to 44.9 mM) | solubility ([10]; organic solvent or mixture, thermodynamic from solid, Tert-butyl methyl ether): < 0.33 mg/mL | solubility ([10]; organic solvent or mixture, thermodynamic from solid, Tetrahydrofuran): 2.55 to 3.19 mg/mL (≈ 4.18 to 5.23 mM) | solubility ([10]; organic solvent or mixture, thermodynamic from solid, n-Heptane): < 0.3 mg/mL | solubility ([10]; thermodynamic from solid, Water): < 0.27 mg/mL | hygroscopicity [11]: slightly hygroscopic | weight gain by water absorption ([11]; at 80% RH): 0.66% | stability, change in liquid chromatography results [12]: no change | stability, change of crystalline form by XRPD [12]: no significant change | solid form after dry grinding ([13]; 5 min of dry grinding): transformed into amorphous state | crystallinity after wet grinding with ethanol ([13]; 5 min of wet grinding with ethanol): slight decrease in crystallinity | crystallinity after wet grinding with water ([13]; 5 min of wet grinding with water): no significant change in crystallinity | crystallinity after tablet pressing [14]: crystallinity slightly decreased | thermodynamic stability versus free base crystalline form V [15]: thermodynamically stable crystalline form

Reference: patent publication US20260250270A1, “Compound Used as Kinase Inhibitor and Use Thereof” (TYK MEDICINES, INC., priority 2022, published 2026)
